The target of one experiment is poly(dAdT). The experiment is described as follows: ethidium displacement assay, poly(dAdT). Format: binding. The settings on record: ± 0.02 × 10^5 M^-1, pH 7.4. The source says:
The ethidium displacement assay is based on the fact that ethidium binding to DNA causes a large (approximately 25 fold) florescence enhancement as a result of the hydrophobic environment surrounding the ethidium molecule. Displacement of ethidium results in decreased fluorescence, and thus binding constants of drugs to DNA can be estimated and compared by measuring the loss of fluorescence as a function of added drug. The drug concentration which produces 50% inhibition of florescence is approximately inversely proportional to the apparent binding constant.
The relative DNA binding constants (Kapp) of distamycin and Compounds 6-10 to calf thymus DNA, T4 coliphage DNA, poly(dAdT) and poly(dGdC) were determined using the ethidium displacement assay (Morgan et al., 1979). The Kapp of ethidium bromide (Debart et al., 1989) is included for comparison. 25 μL of a 2A260 DNA solution was added to 2 mL of ethidium bromide buffer (250 μL of 1.3 mM ethidium bromidestock, 314.9 mg Tris-HCl, 60.8 mg Tris base and 930/mg of Na2 EDTA.2H2 O in 250 ml H2 O) pH 7.4 and the maximum fluorescence was measured (excitation wavelength=546 nm, emission wavelength=600 nm) at ambient temperature.
DNA solutions of 2A260 were prepared as follows: T4 coliphage DNA: 10 units of DNA were dissolved in 1 mL of 10 mM sodium phosphate (pH 7.1) and 0.25 mM EDTA buffer to give a 10A260 solution. 0.3 mL of the stock solution were diluted to 1.5 mL with 10 mM sodium phosphate (pH 7.1) and 0.25 mM EDTA buffer to give a 2A260 solution. Calf thymus DNA: 100 units of DNA were dissolved in 5 mL of 10 mM sodium phosphate (pH 7.1) and 0.25 mM EDTA buffer to give a 20A260 solution. 1.5 mL of the stock solution were diluted to 15 mL with 10 mM sodium phosphate (pH 7.1) and 0.25 mM EDTA buffer to give a 2A260 solution. Poly(dA-dT) and Poly(dG-dC) DNA: 100 units of DNA were dissolved in 10 mL of 10 mM sodium phosphate pH 7.1) and 0.25 mM EDTA buffer to give a 10A260 solution. 3 mL of the stock solution were diluted to 15 mL with 10 mM sodium phosphate (pH 7.1) and 0.25 mM EDTA buffer to give a 2A260 solution.
Aliquots of 10 mM stock drug solution (1 mg of drug to be tested was dissolved with 1 mole equivalent of 0.1M HCl, and then diluted with appropriate volume of distilled water to make a 10 mM solution) were then added to the fluorescing solution and the florescence measured after each addition until a 50% reduction of fluorescence occurred. If the 10 mM stock solution lowered the % fluorescence too quickly, the stock solution was further diluted to 1 mM prior to titration. The apparent binding constant was then calculated from this equation: KEtBr [EtBr]=Kapp [drug], where [drug]=the concentration of drug at a 50% reduction of fluorescence and KEtBr [1×10^7 M^-1 for calf thymus and coliphage T4 DNA^18, 9.5×10^6 M^-1 for poly(dA.dT)^30, and 9.9×10^6 M^-1 for poly(dG.dC)^30 ] and [EtBr] were known. The concentration of ethidium bromide was 1.3 μM. The Kapp values are shown in Table I. In a separate experiment, the Kapp of Compound 5 for calf thymus DNA and poly[dGdC] were determined to be 0.3×10^5 M^-1 and 2.6×10^5 M^-1, respectively. The error in these measurements is ±[…].

A further experiment relates to calf thymus DNA. The experiment is described as follows: UV-dialysis study (covalent retention on DNA). It is filed as binding. The settings on record: 24 h incubation at room temperature; 20-26 hours dialysis; pH 7.1. The source says:
The compounds of the present invention are useful as anticancer agents. Although the biological mechanism which results in anticancer activity is not fully understood, the compounds of the subject invention are capable of binding to the minor groove of double-stranded DNA and, unlike distamycin and netropsin, can tolerate GC-containing DNA. Accordingly, the DNA alkylating moiety of the compounds of the present invention can be directed to the minor groove of GC-containing regions of double-stranded DNA. One of ordinary skill in the art can determine the DNA alkylating ability of the compounds of the present invention by art-recognized methods. The formation of an irreversible adduct of DNA and a compound of the present invention is defined herein as a measure of the DNA alkylating ability of the subject compounds. The formation of an irreversible adduct can be determined by art-recognized methods. For example, a solution containing DNA and a compound of the present invention can be exhaustively dialyzed under conditions which allow unbound drug to pass out of the dialysis bag. The percentage of the compound which has been retained in the dialysis bag is considered to be covalently bound to the DNA, and is determined by comparing the UV absorption spectrum of the compound/DNA solution before and after exhaustive dialysis.
0.5 mL of 2A260 calf thymus DNA was diluted to 2 mL with 10 mM sodium phosphate and 0.25 mM EDTA buffer, pH 7.1. Four aliquots (3 μL each) of a 1 mM stock drug solution in distilled water were added to the DNA solution and a UV absorption spectrum (300-320) was recorded after each addition. The drug/DNA solution was incubated for 24 h at room temperature and another UV spectrum was recorded. The drug/DNA solution was then transferred into a dialysis bag and the dialysis bag was suspended in 30 mL of 10 mM sodium phosphate and 0.25 mM EDTA buffer, pH, 7.1, at room temperature. After 20-26 hours, the […] spectrum of 2 mL of the buffer outside the dialysis bag was recorded. The absorbance of the drug peak was converted to concentration by the Beer-Lambert equation, and the data was presented as percent initial concentration. Under these conditions, substantial amounts of Compounds 6 (55±5%), 7 (45±5%), 8 (85±5%) and 10 (100±5%) are retained in the dialysis bag, while only 29±5% of a formamido analog^1 is retained.

On to `CN(C)CCNC(=O)c1nc(NC(=O)c2nc(NC(=O)c3nc(NC(=O)CCCc4ccc(N(CCCl)CCCl)cc4)cn3C)cn2C)cn1C` [Compound 10, N-(N',N'-dimethylaminoethyl)-1-methyl-4-{1-methyl-4-[4-(4,4-bis(2-chloroethyl)aminophenyl-1-butanamido)-1-methylimidazole-2-carboxamido]imidazole-2-carboxamido}imidazole-2-carboxamide], for which the “Association constant Kapp” value on poly(dAdT) amounted to 13000 M⁻¹. Besides, the “retained in the dialysis bag (percent initial concentration)” value with calf thymus DNA came to 100±5%.
As for `CN(C)CCNC(=O)c1nc(NC(=O)c2nc(NC(=O)CCCc3ccc(N(CCCl)CCCl)cc3)cn2C)cn1C` [Compound 9, N-(N',N'-dimethylaminoethyl)-1-methyl-4-{4-[4,4-bis(2-chloroethyl)aminophenyl-1-butanamido]-1-methylimidazole-2-carboxamido}imidazole-2-carboxamide], the “Association constant Kapp” value on poly(dAdT) was found to be 54000 M⁻¹.
For `CN(C)CCNC(=O)c1nc(NC(=O)c2nc(NC(=O)c3nc(NCc4ccc(N(CCCl)CCCl)cc4)cn3C)cn2C)cn1C` [Compound 8, N-(N',N'-dimethylaminoethyl)-1-methyl-4-{1-methyl-4-[4-(4,4-bis-(2-chloroethyl)aminobenzylamino)-1-methylimidazole-2-carboxamido]imidazole-2-carboxamido}imidazole-2-carboxamide], the “Association constant Kapp” value at poly(dAdT) was determined as 457000 M⁻¹. For the same compound, the “retained in the dialysis bag (percent initial concentration)” value in the experiment on calf thymus DNA is given as 85±5%.
In the same order, the values of `CN(C)CCNC(=O)c1nc(NC(=O)c2nc(NC(=O)c3nc(NC(=O)c4ccc(N(CCCl)CCCl)cc4)cn3C)cn2C)cn1C` [Compound 7, N-(N',N'-dimethylaminoethyl)-1-methyl-4-{1-methyl-4-[4-(4,4-bis-(2-chloroethyl)aminobenzamido)-1-methylimidazole-2-carboxamido]imidazole-2-carboxamido}imidazole-2-carboxamide] are 950000 M⁻¹ and 45±5%.
For `CN(C)CCNC(=O)c1nc(NC(=O)c2nc(NC(=O)c3ccc(N(CCCl)CCCl)cc3)cn2C)cn1C` [Compound 6, N-(N',N'-dimethylaminoethyl)-1-methyl-4-{4-[4,4-bis(2-chloroethyl)aminobenzamido]-1-methylimidazole-2-carboxamido}imidazole-2-carboxamide] the same measures were 475000 M⁻¹ and 55±5%.
